The record followed here is patent US20070249620A1, “Urea Derivative” (priority 2004, published 2007).

Data set [1] addresses T1, mouse DGAT1 (Mus musculus, UniProt Q9Z2A7).
T1 construct: made in house; host or cells: insect cells (High Five, Sf9, Sf21, etc.), baculovirus expression system (Invitrogen)
T1 sequence (Q9Z2A7 1-498): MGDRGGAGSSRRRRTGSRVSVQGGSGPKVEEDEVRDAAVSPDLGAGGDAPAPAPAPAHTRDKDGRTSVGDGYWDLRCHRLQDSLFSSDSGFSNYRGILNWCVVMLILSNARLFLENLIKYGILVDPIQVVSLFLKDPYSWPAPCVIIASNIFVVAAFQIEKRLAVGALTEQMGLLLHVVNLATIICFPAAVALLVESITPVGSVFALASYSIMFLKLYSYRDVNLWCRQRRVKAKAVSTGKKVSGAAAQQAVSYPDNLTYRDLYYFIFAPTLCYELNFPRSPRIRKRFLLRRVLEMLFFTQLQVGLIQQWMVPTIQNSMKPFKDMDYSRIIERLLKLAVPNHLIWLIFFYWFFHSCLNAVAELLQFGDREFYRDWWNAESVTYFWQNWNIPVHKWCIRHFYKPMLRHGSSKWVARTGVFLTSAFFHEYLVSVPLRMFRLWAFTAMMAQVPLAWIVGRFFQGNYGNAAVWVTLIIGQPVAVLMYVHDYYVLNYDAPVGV
Nature of the data set: DGAT1 inhibitory effect test (microsome fraction, [14C]-oleoyl-CoA, triglyceride radioactivity by TLC). The class given is biochemical. The note with it: 0.5 h; concentration of the test compound 0.1 μg/ml; mouse DGAT1 microsomes, 23° C., 30 minutes; read-out: Inhibitory ratio. The procedure: The cDNA which encodes mouse DGAT1 was cloned from a mouse cDNA library by polymerase chain reaction (hereinafter referred to as “PCR”) and introduced into an insect cell virus vector (baculovirus expression system, Invitrogen). After insect cells (High Five, Sf9, Sf21, etc., Invitrogen) were infected with the virus, the cells were collected in buffer A [0.1M sucrose, 50 mM KCl, 40 mM potassium phosphate (pH 7.4), 30 mM EDTA, 1% Protease inhibitor cocktail (SIGMA, P-8340)] and crushed with a Polytron homogenizer. The supernatant obtained by subjecting the homogenate to low speed centrifugal processing (10,000 ×g, 30 minutes) was further subjected to higher-speed centrifugal processing (100,000 ×g, 60 minutes) and the precipitate was resuspended in buffer A as the microsome fraction and used as DGAT1 enzyme. The DGAT1 enzyme was divided into small volumes and stored at −80° C.
(2) DGAT1 Inhibitory Effect Test
The reaction liquid of the following composition [175 mM Tris-HCl (pH 8.0), 8 mM MgCl2, 1 mg/ml BSA, 0.5 mM 1,2-dioleoyl-sn-glycerol (EtOH solution of 10-fold concentration, 10% added), 30 μM[14C]-oleoyl-CoA (about 50 mCi/mmol), 0.5% triton X-100, DGAT1 enzyme (10 μg) obtained in Test Example 1(1), test compound or vehicle (DMSO/MeOH, 7:3 solution, 5% added), total volume 50 μl] was incubated at room temperature (23° C.) for 30 minutes. A reaction terminating solution (70 μl) consisting of isopropanol/1-heptane/water (80:20:2, v/v/v) was added to the reaction solution and stirred, and subsequently stirred with water (30 μl) and 1-heptane (100 μl). The 1-heptane layer (50 μl) was spotted onto a TLC plate and developed with a developing solvent consisting of 1-hexane/diethyl ether/acetic acid (85:15:1, v/v/v). Radioactivity of triglyceride fraction was quantified by BAS2000 bio image analyzer (Fuji Film) and the inhibitory effect of the test compounds was calculated by the following formula through comparison with control. Here, radioactivity at no reaction (0 minutes incubation) was assumed as background. Inhibitory ratio=100−[(Radioactivity when test compound was added)−(Background)]/[(Radioactivity by control)−(Background)]×100

Bounds are passed on as bounds.

As to `COc1ccc(F)cc1NC(=O)Nc1ccc(N2CCN(C(=O)Nc3ccccc3C(F)(F)F)CC2)cc1` [Example 96, 4-{4-[3-(5-fluoro-2-methoxy-phenyl)-ureido]-phenyl}-piperazine-1-carboxylic acid (2-trifluoromethyl-phenyl)-amide], the melting point was in the range of 229 to 230 °C. In data set [1], the inhibition at 0.1 µg/mL was not below 50%.

In turn, `COc1ccc(F)cc1NC(=O)Nc1ccc(N2CCN(C(=O)Nc3ccccc3C)CC2)cc1` [Example 97, 4-{4-[3-(5-fluoro-2-methoxy-phenyl)-ureido]-phenyl}-piperazine-1-carboxylic acid o-tolylamide] had a melting point of 222 to 224 °C. For the same molecule, the inhibition at 0.1 µg/mL in data set [1] is not below 50%.

On to `COc1ccc(F)cc1NC(=O)Nc1ccc(N2CCN(C(=O)Nc3c(C)cccc3Cl)CC2)cc1` [Example 98, 4-{4-[3-(5-fluoro-2-methoxy-phenyl)-ureido]-phenyl}-piperazine-1-carboxylic acid (2-chloro-6-methyl-phenyl)-amide], for which the melting point was 240 to 241 °C. For the same molecule, in data set [1], the inhibition at 0.1 µg/mL is not below 50%.

`COc1ccc(F)cc1NC(=O)Nc1ccc(N2CCN(C(=O)Nc3c(C)cccc3C)CC2)cc1` [Example 99, 4-{4-[3-(5-fluoro-2-methoxy-phenyl)-ureido]-phenyl}-piperazine-1-carboxylic acid (2,6-dimethyl-phenyl)-amide] gave a melting point of 226 to 228 °C. In addition, the inhibition at 0.1 µg/mL in data set [1] is not below 50%.

Regarding `COc1ccc(F)cc1NC(=O)Nc1ccc(N2CCN(C(=O)Nc3c(F)cccc3C(F)(F)F)CC2)cc1` [Example 100, 4-{4-[3-(5-fluoro-2-methoxy-phenyl)-ureido]-phenyl}-piperazine-1-carboxylic acid (2-fluoro-6-trifluoromethyl-phenyl)-amide], the melting point is 181 to 183 °C. Also, in data set [1], the inhibition at 0.1 µg/mL was not below 50%.

As to `COc1ccc(F)cc1NC(=O)Nc1ccc(N2CCN(C(=O)Nc3c(Cl)cccc3Cl)CC2)cc1` [Example 101, 4-{4-[3-(5-fluoro-2-methoxy-phenyl)-ureido]-phenyl}-piperazine-1-carboxylic acid (2,6-dichloro-phenyl)-amide], the melting point was 235 to 237 °C. Further, the inhibition at 0.1 µg/mL in data set [1] is not below 50%.

`CCOc1ccc(Cl)cc1NC(=O)Nc1ccc(N2CCN(C(=O)Nc3ccccc3C(F)(F)F)CC2)cc1` [Example 102, 4-{4-[3-(5-chloro-2-ethoxy-phenyl)-ureido]-phenyl}-piperazine-1-carboxylic acid (2-trifluoromethyl-phenyl)-amide] yielded a melting point of 219 to 221 °C. The inhibition at 0.1 µg/mL in data set [1] is not below 50%.

Take `CCOc1ccc(Cl)cc1NC(=O)Nc1ccc(N2CCN(C(=O)Nc3c(C)cccc3Cl)CC2)cc1` [Example 103, 4-{4-[3-(5-chloro-2-ethoxy-phenyl)-ureido]-phenyl}-piperazine-1-carboxylic acid (2-chloro-6-methyl-phenyl)-amide]: the melting point fell in the range of 159 to 161 °C. Also, the inhibition at 0.1 µg/mL in data set [1] was not below 50%.

Molecule `CCOc1ccc(Cl)cc1NC(=O)Nc1ccc(N2CCN(C(=O)Nc3c(C)cccc3C)CC2)cc1` [Example 104, 4-{4-[3-(5-chloro-2-ethoxy-phenyl)-ureido]-phenyl}-piperazine-1-carboxylic acid (2,6-dimethyl-phenyl)-amide] came in with a melting point of 144 to 146 °C. Besides, the inhibition at 0.1 µg/mL in data set [1] was not below 50%.

For the molecule `CCOc1ccc(Cl)cc1NC(=O)Nc1ccc(N2CCN(C(=O)Nc3c(F)cccc3C(F)(F)F)CC2)cc1` [Example 105, 4-{4-[3-(5-chloro-2-ethoxy-phenyl)-ureido]-phenyl}-piperazine-1-carboxylic acid (2-fluoro-6-trifluoromethyl-phenyl)-amide], the melting point lay in the range of 146 to 148 °C. The inhibition at 0.1 µg/mL in data set [1] was not below 50%.

In turn, `CCOc1ccc(Cl)cc1NC(=O)Nc1ccc(N2CCN(C(=O)Nc3ccc(OC)cc3C)CC2)cc1` [Example 106, 4-{4-[3-(5-chloro-2-ethoxy-phenyl)-ureido]-phenyl}-piperazine-1-carboxylic acid (4-methoxy-2-methyl-phenyl)-amide] gave a melting point of 210 to 213 °C. The inhibition at 0.1 µg/mL in data set [1] is not below 50%.

`CCOc1ccc(Cl)cc1NC(=O)Nc1ccc(N2CCN(C(=O)Nc3ccc(C)cc3Cl)CC2)cc1` [Example 107, 4-{4-[3-(5-chloro-2-ethoxy-phenyl)-ureido]-phenyl}-piperazine-1-carboxylic acid (2-chloro-4-methyl-phenyl)-amide] yielded a melting point of 124 to 126 °C. In addition, the inhibition at 0.1 µg/mL in data set [1] was not below 50%.

Molecule `COc1ccc(NC(=O)N2CCN(c3ccc(NC(=O)Nc4cc(Cl)ccc4OC)cc3)CC2)c(C)c1` [Example 109, 4-{4-[3-(5-chloro-2-methoxy-phenyl)-ureido]-phenyl}-piperazine-1-carboxylic acid (4-methoxy-2-methyl-phenyl)-amide] came in with a melting point of 225 to 226 °C. Further, the inhibition at 0.1 µg/mL in data set [1] was not below 50%.

For the molecule `CCOc1ccccc1NC(=O)Nc1ccc(N2CCN(C(=O)Nc3ccc(OC)cc3C)CC2)cc1` [Example 110, 4-{4-[3-(2-ethoxy-phenyl)-ureido]-phenyl}-piperazine-1-carboxylic acid (4-methoxy-2-methyl-phenyl)-amide], the melting point lay in the range of 202 to 203 °C. The inhibition at 0.1 µg/mL in data set [1] was not below 50%.

`CCOc1ccc(C)cc1NC(=O)Nc1ccc(N2CCN(C(=O)Nc3ccc(OC)cc3C)CC2)cc1` [Example 111, 4-{4-[3-(2-ethoxy-5-methyl-phenyl)-ureido]-phenyl}-piperazine-1-carboxylic acid (4-methoxy-2-methyl-phenyl)-amide] yielded a melting point of 202 to 204 °C. For the same molecule, the inhibition at 0.1 µg/mL in data set [1] is not below 50%.

Consider `CCOc1ccc(F)cc1NC(=O)Nc1ccc(N2CCN(C(=O)Nc3ccc(OC)cc3C)CC2)cc1` [Example 112, 4-{4-[3-(2-ethoxy-5-fluoro-phenyl)-ureido]-phenyl}-piperazine-1-carboxylic acid (4-methoxy-2-methyl-phenyl)-amide], for which the melting point lay within 186 to 189 °C. In addition, the inhibition at 0.1 µg/mL in data set [1] was not below 50%.

`COc1ccc(NC(=O)N2CCN(c3ccc(NC(=O)Nc4cc(F)ccc4OC)cc3)CC2)c(C)c1` [Example 113, 4-{4-[3-(5-fluoro-2-methoxy-phenyl)-ureido]-phenyl}-piperazine-1-carboxylic acid (4-methoxy-2-methyl-phenyl)-amide] displayed a melting point of 216 to 218 °C. In addition, the inhibition at 0.1 µg/mL in data set [1] is not below 50%.

Consider `COc1ccc(Cl)cc1NC(=O)Nc1ccc(N2CCN(C(=O)Nc3c(C)cccc3C)CC2)cc1` [Example 114, 4-{4-[3-(5-chloro-2-methoxy-phenyl)-ureido]-phenyl}-piperazine-1-carboxylic acid (2,6-dimethyl-phenyl)-amide], for which the melting point lay in the range of 216 to 218 °C. The inhibition at 0.1 µg/mL in data set [1] was not below 50%.

Regarding `COc1ccc(Cl)cc1NC(=O)Nc1ccc(N2CCN(C(=O)Nc3c(F)cccc3C(F)(F)F)CC2)cc1` [Example 115, 4-{4-[3-(5-chloro-2-methoxy-phenyl)-ureido]-phenyl}-piperazine-1-carboxylic acid (2-fluoro-6-trifluoromethyl-phenyl)-amide], the melting point is 156 to 158 °C. Also, the inhibition at 0.1 µg/mL in data set [1] is not below 50%.

As to `CCOc1ccccc1NC(=O)Nc1ccc(N2CCN(C(=O)Nc3c(C)cccc3C)CC2)cc1` [Example 116, 4-{4-[3-(2-ethoxy-phenyl)-ureido]-phenyl}-piperazine-1-carboxylic acid (2,6-dimethyl-phenyl)-amide], the melting point is 204 to 205 °C. The inhibition at 0.1 µg/mL in data set [1] was not below 50%.

The term melting point denotes the temperature, or range, at which the solid turns liquid.
